The test system of this experiment is rice blast. It is filed as cell-based. Conditions: acetone solution at 500 ppm, 1000 μl dropped on oatmeal medium; 8 mm rice blast disc; 25° C. for five days; fungal filament elongation vs acetone-only treatment.

SMILES strings stand for the structures.

`COc1nc(-c2ccccn2)nc(F)c1C(F)(F)F` [Example 3, 6-fluoro-4-methoxy-2-(2-pyridyl)-5-trifluoromethylpyrimidine] had a Preventive value of 80.

Values taken from patent publication US20210403455A1 (priority 2018, published 2021).
